Activity calls are given as the source filed them.

Assay [1] deals with T1, Adenosylmethionine-8-amino-7-oxononanoate aminotransferase (Mycobacterium tuberculosis, UniProt P9WQ81).
T1 sequence (P9WQ81 whole entry): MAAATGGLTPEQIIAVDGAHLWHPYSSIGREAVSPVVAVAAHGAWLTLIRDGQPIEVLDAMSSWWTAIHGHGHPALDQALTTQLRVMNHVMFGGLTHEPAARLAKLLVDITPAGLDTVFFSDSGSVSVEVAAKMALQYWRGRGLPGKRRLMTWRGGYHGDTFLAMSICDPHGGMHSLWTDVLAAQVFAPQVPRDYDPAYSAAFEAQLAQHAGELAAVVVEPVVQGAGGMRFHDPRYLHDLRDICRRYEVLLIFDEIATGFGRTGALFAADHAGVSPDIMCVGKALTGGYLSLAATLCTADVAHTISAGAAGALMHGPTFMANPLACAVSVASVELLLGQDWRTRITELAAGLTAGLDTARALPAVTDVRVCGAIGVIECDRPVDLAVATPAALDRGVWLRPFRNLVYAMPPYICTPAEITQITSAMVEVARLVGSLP
Briefly: Mycobacterium tuberculosis BioA enzyme inhibitor Measured in Biochemical System Using Plate Reader - 2163-02_Inhibitor_Dose_CherryPick_Activity. Format: functional, Mycobacterium tuberculosis UT205.

Assay [2] is described as follows: NIH-3T3 fibroblast cytotoxicity, dose response, cytotoxicity control, cell-based, fluorescence, Alamar Blue, secondary assay (AID 2327).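 Also: NIH-3T3 mouse fibroblasts cultured with fluconazole at 8 µg/mL.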 It is filed as functional. For orientation: Resazurin is reduced to fluorescent resorufin, in cell work by metabolically active cells.
A further assay has as its target Genome polyprotein (dengue virus type 2, UniProt P29990). Briefly: Dengue-2 NS5 methyltransferase inhibitors, primary screen, biochemical, confirmation dose response (AID 588689). It is filed as functional.
The target in the next assay is T2, Streptokinase A (Streptococcus pyogenes serotype M1, UniProt P10520).
T2 sequence (P10520 whole entry): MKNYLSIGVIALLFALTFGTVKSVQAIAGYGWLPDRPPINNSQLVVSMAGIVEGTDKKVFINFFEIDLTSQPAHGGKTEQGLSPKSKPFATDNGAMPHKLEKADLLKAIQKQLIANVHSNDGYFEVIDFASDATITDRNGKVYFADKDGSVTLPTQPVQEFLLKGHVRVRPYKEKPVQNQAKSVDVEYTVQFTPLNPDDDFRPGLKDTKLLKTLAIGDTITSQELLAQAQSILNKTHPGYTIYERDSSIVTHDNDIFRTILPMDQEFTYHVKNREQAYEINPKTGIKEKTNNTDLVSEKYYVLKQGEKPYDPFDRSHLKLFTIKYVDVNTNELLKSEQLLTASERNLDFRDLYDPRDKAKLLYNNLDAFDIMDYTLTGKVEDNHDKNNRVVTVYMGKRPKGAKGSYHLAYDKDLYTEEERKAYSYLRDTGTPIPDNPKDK
Briefly: S. pyogenes streptokinase expression inhibitors, potency, dose response, plasminogen activation absorbance, OD405 (AID 1914).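 Also: secreted streptokinase activity via plasminogen activation per viability signal from cell pellet.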 Format: functional, Streptococcus pyogenes M1 GAS.

Assay [3] concerns Streptococcus sp. 'group A'. Briefly: growth inhibition of control SK(-) GAS strain, dose response, counter-screen for streptokinase expression inhibitor project, luminescence, kanamycin, BacTiterGlo, confirmation (AID 1900). Format: functional, organism-based. In general terms: The purpose of a counterscreen is to sort out artefacts and off-target activity.
The subject of the next assay is Vero. Briefly: Vero cell cytotoxicity, cytotoxicity control for flavivirus capping enzyme inhibitors (AID 588742). The note with it: Chlorocebus sabaeus. Format: functional.
The subject of a further assay is Streptococcus. Briefly: Group A Streptococcus viability loss, dose response, counter-screen for streptokinase expression inhibitor project, luminescence, BacTiterGlo (AID 1915).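 Also: potency for reduction of bacterial viability or growth.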 It is filed as functional, organism-based.
A short description of assay [4]: C. albicans growth with fluconazole, confirmation, fluorescence, retest (AID 2467). It is filed as functional, cell-based.

Sequence of Genome polyprotein (P29990 2492-3391 limits assumed): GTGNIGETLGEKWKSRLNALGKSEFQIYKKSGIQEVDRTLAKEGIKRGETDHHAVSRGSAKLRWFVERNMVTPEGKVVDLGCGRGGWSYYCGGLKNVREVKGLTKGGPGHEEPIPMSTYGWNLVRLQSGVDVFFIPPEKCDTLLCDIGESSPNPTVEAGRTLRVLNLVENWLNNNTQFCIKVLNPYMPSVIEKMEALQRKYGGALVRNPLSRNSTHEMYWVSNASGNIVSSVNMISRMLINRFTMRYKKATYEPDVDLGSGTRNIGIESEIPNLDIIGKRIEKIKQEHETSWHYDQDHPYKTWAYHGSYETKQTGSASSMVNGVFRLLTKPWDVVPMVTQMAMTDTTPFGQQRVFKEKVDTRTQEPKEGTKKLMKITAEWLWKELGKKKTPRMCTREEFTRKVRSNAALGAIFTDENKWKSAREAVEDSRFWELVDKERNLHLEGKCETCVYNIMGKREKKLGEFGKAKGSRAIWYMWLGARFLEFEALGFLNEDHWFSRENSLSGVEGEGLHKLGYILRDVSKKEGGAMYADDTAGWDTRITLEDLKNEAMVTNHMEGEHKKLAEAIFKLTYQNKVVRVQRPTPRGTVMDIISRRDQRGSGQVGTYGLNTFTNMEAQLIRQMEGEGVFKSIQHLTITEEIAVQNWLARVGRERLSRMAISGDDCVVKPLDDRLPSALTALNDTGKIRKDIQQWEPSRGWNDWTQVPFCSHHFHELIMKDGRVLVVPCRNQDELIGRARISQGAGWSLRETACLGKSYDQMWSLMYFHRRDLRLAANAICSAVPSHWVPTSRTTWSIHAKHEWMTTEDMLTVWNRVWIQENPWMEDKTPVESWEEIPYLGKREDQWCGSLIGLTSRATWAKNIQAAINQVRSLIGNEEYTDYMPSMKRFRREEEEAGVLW

As a reminder, the AC50 is the midpoint of the concentration-response curve, whichever way the signal moves. Consider `O=C(O)CCS(=O)(=O)c1nc(-c2cccs2)cc(C(F)(F)F)n1`, for which the AC50 in assay [1] was 15.6 µM (active).
Turning to `CCOCCCNC(=O)CSc1nc2nc(C)c(Cc3ccccc3)c(C)n2n1`, in assay [1], the half-maximal activity concentration (AC50) is 2.18 µM (active).
Consider `Cc1cc(NC(=O)CN(C)S(=O)(=O)c2c[nH]cn2)ccc1Br`, for which the AC50 in assay [1] is 19 µM (active).
On the same count and under the same terms, the value for `CCC(=O)N1CC[C@@H]2[C@@H](CO)N(C)c3ccc(-c4cccc(F)c4)cc3[C@@H]21` was 0.184 µM (active).
A word on the EC50: it is the concentration at which the effect is half-maximal. A word on the IC50: it is the midpoint of a concentration-inhibition curve. Broadly, the CC50 is the concentration at which the toxic effect on the cells reaches its halfway point. As for `CCc1ccc(/C=C2\SC(=S)N(CCCC(=O)Nc3ccccc3C(=O)O)C2=O)cc1`, the concentration for a half-maximal effect (EC50) in assay [2] is 6.89 µM (inconclusive); at Streptokinase A it was > 50 µM (not active); in assay [3] it was 1.9 µM (active); in the assay on Streptococcus it was 133 µM (active); in assay [4], 2.37 µM (active). Also, at Genome polyprotein, the IC50 is 30.8 µM (active). For the same molecule, in the assay with Vero, the cytotoxic concentration (CC50) is > 40 µM (active).
Turning to `Nn1c(SCCOc2ccccc2)nnc1-c1cccnc1`, the concentration at half-maximal activity (AC50) in assay [1] was 1.33 µM (active).

The values are drawn from ChEMBL document CHEMBL1201862, “PubChem BioAssay data set” (2004).
